# Test: Urinary excretion of flavanol metabolites (0-24 h) after a single serving of soluble cocoa product (HPLC-ESI-QToF-MS)
# Assay type: in vivo, human
# Conditions: mean ± SD, n = 13; for Excreted in urine, Total: 24 h urine; for Excreted in urine, Basal: basal urine (−2–0 h, before intake)
# Procedure: They were non-smoker, non-vegetarian, non-pregnant women, who were not taking any medication or nutritional supplements, and were not suffering from any chronic pathology or gastrointestinal disorder. The sample size was estimated attending to similar previous bioavailability studies. The volunteers gave their informed consent prior to participation.
# The present randomized, single-blind study was carried out at the Human Nutrition Unit (HNU) of the Institute of Food Science, Technology and Nutrition (ICTAN). Volunteers attended the HNU on two days, separated by two weeks. Three days previous to each visit, participants were instructed not to consume cocoa products (chocolate, soluble cocoa, etc.), juices, tea, wine, grape must, oranges, tangerines, apples, grapes, strawberries or other berries, beets, onions, soybeans and soy derivatives.
# On each intervention day, volunteers arrived at the HNU after an overnight fast. […] The soluble cocoa products, either 15 g of CC or 25 g CC-PP, were dissolved in 200 mL of semi-skimmed milk following manufacturer’s preparation instructions. Plasma was separated by centrifugation (10 min, 3000 rpm, 4 °C) and stored at −80 °C until further analysis. […] A polyphenol-free breakfast, lunch and afternoon snack were provided 2 h, 4 h, and 8 h after consumption of cocoa products, and water and isotonic beverages were available ad libitum.
# Urine samples were diluted with an equivalent volume of Milli-Q water (50%) and centrifuged at 14000 rpm (10 min, 4 °C). Supernatants were filtered (0.45 μm pore-size cellulose-acetate membrane filters) and a 5 µL aliquot was directly injected into the LC-ESI-QToF-MS equipment.
# The test samples, either 30 μL of the plasma extract or 5 μL of diluted urine, were injected and separated using a mobile phase consisting of Milli-Q water (phase A) and acetonitrile (phase B), both containing 0.1% formic acid, at a flow rate of 0.3 mL/min. The mobile phase was initially programmed with 90% of solvent A and 10% of B. The elution program increased to 30% of solvent B in 10 min. Then, the initial conditions (10% solvent B) were recovered in 5 min and maintained for 5 min.
# Due to the lack of standards for certain phase II metabolites, they were tentatively quantified using the calibration curves of their corresponding phenolic precursors. […] The rest of microbial metabolites identified, derivatives of hydroxyphenylpropionic, hydroxyphenylacetic, hydroxybenzoic and hippuric acids, were quantified using their respective commercially available standards. Urine concentration of the excreted metabolites was normalized by the volume excreted in each studied interval. […] Calibration curves were freshly prepared in a pool of both plasma and urine due to matrix effects.
# Statistical analyses were carried out using the program SPSS (version 23.0, SPSS, Inc., IBM Company, New York, NY, USA). Significant differences between metabolites excreted in urine after consumption of CC and CC-PP cocoa products were evaluated based on non-parametric Wilcoxon test (p < 0.05). To determine the absorption and elimination of epicatechin metabolites after consumption of the soluble cocoa products, metabolite nutrikinetics were studied using the pharmacokinetic functions of Microsoft Excel, calculating the maximum concentration (Cmax), area under curve (AUC) and time to reach maximum concentration (Tmax). Data are expressed as mean ± standard deviation.
# [1] = after CC-PP (68.25 mg flavanols)
Compound,"Excreted in urine, Total (after CC (19.80 mg flavanols))","Excreted in urine, 4–8 h (after CC (19.80 mg flavanols))","Excreted in urine, 8–12 h (after CC (19.80 mg flavanols))","Excreted in urine, 12–24 h (after CC (19.80 mg flavanols))","Excreted in urine, Total [1] [µmol]","Excreted in urine, 0–4 h [1]","Excreted in urine, 4–8 h [1]","Excreted in urine, 8–12 h [1]","Excreted in urine, 12–24 h [1]","Excreted in urine, Basal (CC intervention)","Excreted in urine, Basal (CC-PP intervention)","Excreted in urine, 0–4 h (after CC (19.80 mg flavanols))"
"O=C1CCC(Cc2cccc(O)c2)O1 (centres unmarked) [HPVL, 5-(3′-Hydroxyphenyl)-γ-valerolactone]",<L.Q. *,<L.Q.,<L.Q.,<L.Q.,0.104 ± 0.041,<L.Q.,0.104 ± 0.041 µmol,<L.Q.,<L.Q.,–,–,–
"O=C1CCC(Cc2ccc(O[C@@H]3O[C@H](C(=O)O)[C@@H](O)[C@H](O)[C@H]3O)c(O)c2)O1 (some centres unmarked) [HPVL-4′-glucuronide, 5-(3′-Hydroxyphenyl)-γ-valerolactone-4′-glucuronide]",–,–,<L.Q.,<L.Q.,0.961 ± 0.151,<L.Q.,0.330 ± 0.111 µmol,0.550 ± 0.015 µmol,0.081 ± 0.025 µmol,<L.Q.,<L.Q.,<L.Q.
"O=C(O)Cc1ccc(O)c(O)c1 [3,4-Dihydroxyphenylacetic acid]",1.525 ± 0.974 µmol,0.556 ± 0.379 µmol,0.094 ± 0.033 µmol,0.133 ± 0.020 µmol,2.153 ± 0.401,0.751 ± 0.057 µmol,0.556 ± 0.096 µmol,0.198 ± 0.037 µmol,0.539 ± 0.196 µmol,0.094 ± 0.032 µmol,0.109 ± 0.015 µmol,0.648 ± 0.505 µmol
"O=C(O)Cc1cccc(O)c1 [Hydroxyphenylacetic acid, 3-Hydroxyphenylacetic acid]",2.208 ± 0.328 µmol,0.605 ± 0.092 µmol,0.225 ± 0.052 µmol,0.600 ± 0.100 µmol,2.862 ± 0.654,0.631 ± 0.140 µmol,0.678 ± 0.231 µmol,0.434 ± 0.070 µmol,0.534 ± 0.143 µmol,0.369 ± 0.077 µmol,0.585 ± 0.070 µmol,0.408 ± 0.084 µmol
"O=C(O)CCc1ccc(O)c(O)c1 [3,4-Dihydroxyphenylpropionic acid]",0.866 ± 0.148 µmol,0.243 ± 0.039 µmol,0.074 ± 0.017 µmol,0.215 ± 0.016 µmol,1.117 ± 0.131,0.256 ± 0.027 µmol,0.238 ± 0.028 µmol,0.109 ± 0.016 µmol,0.301 ± 0.029 µmol,0.117 ± 0.024 µmol,0.213 ± 0.031 µmol,0.217 ± 0.051 µmol
Epicatechin-3′-methoxy-glucuronide,<L.Q. *,<L.Q.,–,–,0.121 ± 0.036,0.121 ± 0.036 µmol,<L.Q.,<L.Q.,–,–,–,<L.Q.
"O=C(O)c1ccc(O)c(O)c1 [Protocatechuic acid, 3,4-Dihydroxybenzoic acid]",0.959 ± 0.217 µmol,0.373 ± 0.237 µmol,0.094 ± 0.047 µmol,0.104 ± 0.044 µmol,0.528 ± 0.105,0.105 ± 0.016 µmol,0.113 ± 0.020 µmol,0.095 ± 0.040 µmol,0.127 ± 0.015 µmol,0.161 ± 0.071 µmol,0.088 ± 0.014 µmol,0.227 ± 0.142 µmol
O=C(O)CCc1ccc(O)cc1 [Hydroxyphenylpropionic acid],0.883 ± 0.154 µmol,0.259 ± 0.043 µmol,0.077 ± 0.018 µmol,0.203 ± 0.025 µmol,1.204 ± 0.243,0.350 ± 0.038 µmol,0.356 ± 0.076 µmol,0.140 ± 0.041 µmol,0.284 ± 0.075 µmol,0.118 ± 0.023 µmol,0.074 ± 0.013 µmol,0.226 ± 0.046 µmol
COc1cc(CC(=O)O)ccc1O [3-Methoxy-4-hydroxyphenylacetic acid],0.398 ± 0.118 µmol,0.093 ± 0.028 µmol,<L.Q.,0.103 ± 0.022 µmol,0.648 ± 0.178,0.188 ± 0.026 µmol,0.124 ± 0.050 µmol,<L.Q.,0.138 ± 0.016 µmol,0.103 ± 0.014 µmol,0.198 ± 0.071 µmol,0.099 ± 0.054 µmol
Hydroxybenzoic acid [Hidroxybenzoic acid],0.798 ± 0.162 µmol,0.200 ± 0.051 µmol,0.070 ± 0.018 µmol,0.195 ± 0.025 µmol,1.380 ± 0.365,0.396 ± 0.060 µmol,0.298 ± 0.036 µmol,0.172 ± 0.063 µmol,0.302 ± 0.169 µmol,0.188 ± 0.041 µmol,0.212 ± 0.037 µmol,0.145 ± 0.027 µmol
COc1ccc(/C=C/C(=O)O)cc1O [Isoferulic acid],0.522 ± 0.290 µmol,0.096 ± 0.040 µmol,0.088 ± 0.069 µmol,0.082 ± 0.016 µmol,0.686 ± 0.356,0.164 ± 0.044 µmol,0.160 ± 0.066 µmol,0.152 ± 0.094 µmol,0.210 ± 0.152 µmol,0.170 ± 0.137 µmol,<L.Q.,0.086 ± 0.028 µmol
"COc1ccc([C@H]2Oc3cc(O)cc(OS(=O)(=O)O)c3C[C@H]2O)cc1O (single isomer, unassigned) [Epicatechin-methoxy-sulfate (isomer 3), Epicatechin-methoxy-sulfate]",0.758 ± 0.125 µmol,0.285 ± 0.036 µmol,<L.Q.,–,2.354 ± 0.402,1.702 ± 0.243 µmol,0.652 ± 0.148 µmol,<L.Q.,<L.Q.,–,–,0.473 ± 0.089 µmol
COc1cc(CCC(=O)O)ccc1O [3-Methoxy-4-hydroxyphenylpropionic acid],0.248 ± 0.071 µmol,<L.Q.,<L.Q.,<L.Q.,0.461 ± 0.138,0.175 ± 0.054 µmol,<L.Q.,<L.Q.,0.199 ± 0.052 µmol,0.104 ± 0.027 µmol,0.077 ± 0.032 µmol,0.144 ± 0.044 µmol
